# In patent US20190201376A1, “Method for Treating or Preventing Fatty Acid Binding Protein 3 Induced B-amyloid Aggregation Diseases” (NATIONAL TAIWAN NORMAL UNIVERSITY, priority 2017, published 2019):
# Assays:
# [1] = target: T1, recombinant human FABP3 protein (FABP3-induced Aβ42 oligomerization) (Homo sapiens, UniProt P05413); assay: Western blot of Aβ42 oligomerization with recombinant FABP3 pre-incubated with artemisinin; format: biochemical; details: artemisinin 4 μM preincubated with FABP3 2.5 μM for four hours, then Aβ42 oligomers 2.5 μM 24 hours; 6E10 antibody, ImageJ; p<0.05
# T1 construct: purchased Cayman Chemical
# Description: Synthetic Aβ42 peptides (AnaSpec) were solubilized in hexafluoroisopropanol (HFIP), and then HFIP was allowed to be evaporated completely under nitrogen flow. Aβ42 peptides were resuspended using phosphate buffered saline (PBS) to […], and were incubated to assemble oligomers at room temperature for 24 hours prior to use. The oligomeric status of AP was verified by sodium dodecyl sulfate polyacrylamide gel electrophoresis (SDS-PAGE).
# Afterwards, the oligomerization of Aβ42 was analyzed using western blot analysis and detected with 6E10 antibody.
# [2] = system: SH-SY5Y cells transfected with human FABP3; assay: MTT cell viability assay, Aβ42 cytotoxicity in FABP3-transfected SH-SY5Y cells; format: cell-based; details: pcDNA3/FABP3 SH-SY5Y cells, artemisinin (0-4 μM) pretreatment four hours, Aβ42 2.5 μM 24 hours; increased from 65% without artemisinin; p<0.01
# Description: (§1) Human neuroblastoma SH-SY5Y cell line was obtained from American Type Culture Collection (ATCC® CRL-2266™) and maintained in Dulbecco's Modified Eagle Medium with nutrient mixture F-12 (DMEM/F12; Invitrogen) media supplemented with 10% FBS, 100 U/mL penicillin and 100 μg/mL streptomycin at 37° C. in a 5% CO2 humidified incubator.
# Human FAPB3 cDNA, which was reverse transcribed from the total RNA of SH-SY5Y cells, was amplified by polymerase chain reaction (PCR) using primers (5′-[…] and 5′-TGCCTCTTCTCATAAGTG) and then cloned into pcDNA™3.1D/V5-His-TOPO vector (Invitrogen). SH-SY5Y cells stably expressing human FABP3 were obtained using lipofectamine transfection with selection via cultivation in DMEM/F12 medium (Gibco) containing 500 µg/mL G418 (Sigma-Aldrich).
# Afterwards, purple formazan crystals formed by reduction of MTT in the mitochondria of living cells were dissolved in 100 μl solution containing 10% SDS and 0.01N HCl. The absorbance was measured at 570 nm with an ELISA reader (pQuant; BioTek Instruments, Inc).
# [3] = system: stably transfected human FABP3-SH-SY5Y cells; assay: Western blot of Aβ42 oligomerization in stably transfected human FABP3-SH-SY5Y cells; format: cell-based; details: artemisinin 4 μM pretreatment 4 hours, Aβ42 2.5 μM 24 hours
# Description: as §1
# Human FAPB3 cDNA, which was reverse transcribed from the total RNA of SH-SY5Y cells, was amplified by polymerase chain reaction (PCR) using primers (5′-[…] and 5′-TGCCTCTrTCTCATAAGTG) and then cloned into pcDNA™3.1D/V5-His-TOPO vector (Invitrogen). SH-SY5Y cells stably expressing human FABP3 were obtained using lipofectamine transfection with selection via cultivation in DMEM/F12 medium (Gibco) containing 500 μg/mL G418 (Sigma-Aldrich).
# Then, the stably transfected human FABP3-SH-SY5Y cells were washed with PBS and lysed with radioimmunoprecipitation (RIPA) buffer supplemented with cOmplete™ Protease Inhibitor Cocktail (Sigma-Aldrich). The samples with equal amounts of total protein (50 μg) were fractionated by SDS-PAGE and electrotransferred to a polyvinylidene difluoride (PVDF) membrane (Millipore). The membrane was blocked for one hour at room temperature with 10% nonfat milk in TBST buffer (20 mM Tris-HCl, 150 mM NaCl, and 0.1% Tween 20); thereafter, the membrane was incubated with 6E10 (BioLegend), FABP3 (Santa Cruz) or GAPDH (Santa Cruz) antibodies. […]
# [4] = system: 3×Tg AD transgenic mice; assay: Morris water maze test; format: in vivo; details: 3×Tg AD mice, artemisinin 1 mg/kg i.p. every other day from 12 to 36 weeks of age, tested at 36 weeks; p<0.05
# Description: In the present embodiment, 3×Tg AD transgenic mice were obtained from the Jackson Laboratory (004807), and wild-type C57BL/6 mice were purchased from the National Laboratory Animal Center. The body weights of the animals were measured every eight weeks from 12th to 36th week-old. The animals were i.p. administered with pure water or artemisinin (1 mg/kg) every other day from 12 weeks to 36 weeks of age; the WT-W group was water vehicle-treated wild-type mice; the AD-W group was water vehicle-treated 3×Tg AD transgenic mice; and AD-R group was artemisinin-treated 3×Tg AD transgenic mice. The animals were examined by using behavioral tasks, including Morris water maze test, spontaneous alternation behavior Y-maze test, and novel object recognition task test, when they were 36-week-old. To evaluate whether artemisinin ameliorates the spatial learning and memory deficits, the Morris water maze test was performed. […] After the last trail, mice were subjected to the probe test that the platform was removed, and the time spent in quadrants was recorded by a computer-controlled system.
# [5] = system: 3×Tg AD transgenic mice; assay: Spontaneous alternation behavior Y-maze test; format: in vivo; details: 3×Tg AD mice, artemisinin 1 mg/kg i.p. every other day from 12 to 36 weeks of age, tested at 36 weeks
# Description: In the present embodiment, 3×Tg AD transgenic mice were obtained from the Jackson Laboratory (004807), and wild-type C57BL/6 mice were purchased from the National Laboratory Animal Center. The body weights of the animals were measured every eight weeks from 12th to 36th week-old. The animals were i.p. administered with pure water or artemisinin (1 mg/kg) every other day from 12 weeks to 36 weeks of age; the WT-W group was water vehicle-treated wild-type mice; the AD-W group was water vehicle-treated 3×Tg AD transgenic mice; and AD-R group was artemisinin-treated 3×Tg AD transgenic mice. The animals were examined by using behavioral tasks, including Morris water maze test, spontaneous alternation behavior Y-maze test, and novel object recognition task test, when they were 36-week-old. The spontaneous alternation behavior Y-maze test was used to estimate short-term memory. The Y-maze was a three-arm maze (30 cm long and 5 cm wide with 12 cm in height) with equal angles and the arms were labeled A, B, and C. The 36-week-old mice (n=6 per group) administered with aforementioned treatment were initially placed within one arm, and the number of arm entries and the number of alternations were recorded for eight min period for each mouse. […] The percentage of alternation was calculated by the following equation: Alternation (%)=[(Number of alternation)/(Total arm entries−2)]×100.
# [6] = system: 3×Tg AD transgenic mice; assay: Novel object recognition test; format: in vivo; details: 3×Tg AD mice, artemisinin 1 mg/kg i.p. every other day from 12 to 36 weeks of age, versus untreated 3×Tg AD mice; p<0.05
# Description: In the present embodiment, 3×Tg AD transgenic mice were obtained from the Jackson Laboratory (004807), and wild-type C57BL/6 mice were purchased from the National Laboratory Animal Center. The body weights of the animals were measured every eight weeks from 12th to 36th week-old. The animals were i.p. administered with pure water or artemisinin (1 mg/kg) every other day from 12 weeks to 36 weeks of age; the WT-W group was water vehicle-treated wild-type mice; the AD-W group was water vehicle-treated 3×Tg AD transgenic mice; and AD-R group was artemisinin-treated 3×Tg AD transgenic mice. The animals were examined by using behavioral tasks, including Morris water maze test, spontaneous alternation behavior Y-maze test, and novel object recognition task test, when they were 36-week-old. The novel object recognition was conducted to examine whether artemisinin can restore recognition memory, which involves the frontal cortex, entorhinal cortex and hippocampus; it was used to evaluate the inborn tendency of the rodents to explore novel objects rather than familiar ones. During the first two days, mice were habituated to open field (50×40 cm, with 22 cm in height) for two sessions of 10 min each day in order to be familiar with the apparatus. […] The discrimination index was calculated as percentage ratio of TB/(TA+TB)×100. […]
# T1 sequence (P05413 whole entry): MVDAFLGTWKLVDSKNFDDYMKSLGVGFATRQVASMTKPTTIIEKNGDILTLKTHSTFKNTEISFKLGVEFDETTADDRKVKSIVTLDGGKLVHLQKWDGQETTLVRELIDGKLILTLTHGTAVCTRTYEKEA
smiles,measurement,setting,value
C[C@@H]1CC[C@H]2[C@@H](C)C(=O)O[C@@H]3O[C@@]4(C)CC[C@@H]1[C@]32OO4 [artemisinin],decrease of Aβ42 tetramer induced by FABP3,[1],156%
same,decrease of Aβ42 trimer induced by FABP3,[1],144%
same,cell viability,[2],85%
same,decrease of Aβ42 tetramer induced by FABP3 overexpression,[3],87%
same,decrease of Aβ42 trimer induced by FABP3 overexpression,[3],78%
same,time in finding the hidden platform,[4],significantly less time
same,spatial working memory (spontaneous alternation rate),[5],restored spatial working memory to the extent similar as that of the wild-type group
same,increment in the discrimination index,[6],56%
